Laboratory results as given in patent EP0998924A1, “ANTITUMOR AGENTS” (MEIJI MILK PRODUCTS COMPANY LIMITED, priority 1997, dated 1999).

Tested on: topoisomerase II
Assay: Measurement of topoisomerase II inhibitory activity (kDNA decatenation, agarose gel electrophoresis and densitometry)
Type: biochemical, rat
Method: Test Example 1 Measurement of Topoisomerase II Inhibitory Activity
(A) Extraction of crude topoisomerase II from rat infant brain nuclei (IBN)
IBN (11.98 mg/ml in 50% glycerol) (4.2 µl) was fractionated and subjected to centrifugation (3,000 × g, one minute), to thereby remove glycerol. The thus-obtained pellet was suspended in a nuclear extraction buffer (20 mM Tris-HCl (pH 7.5), 0.3 M NaCl, 140 mM β-Me, […], 20 mM PMSF) (10 µl), and the suspension was incubated in ice for 30 minutes. Subsequently, the suspension was subjected to centrifugation (10,000 × g, 10 minutes) and supernatant was fractionated, to thereby obtain crude topoisomerase II. The thus-obtained topoisomerase II was diluted on the basis of activity.
(B) Dilution of purified topoisomerase II (Top GEN, Inc)
Topoisomerase II (Top GEN, Inc) was diluted with the aforementioned nuclear extraction buffer, so as to attain a concentration of 0.75 unit/ml.
A test sample (1 µl) and a buffer (18 µl) containing a mixture of required amounts of Milli Q, 4 × topoisomerase II buffer (250 mM Tris-HCl (pH 7.9), 600 mM KCl, 50 mM MgCl2, 0.5 mM EDTA, 2.5 mM ATP, 150 mg/ml BSA), and k DNA (312 ng/ml) were added to an Eppendorf tube, and the resultant mixture was vortexed and lightly centrifuged. Subsequently, diluted crude topoisomerase II or diluted purified topoisomerase (1 µl) was added to the mixture, and the mixture was vortexed and lightly centrifuged. (Meanwhile, instead of such topoisomerase II, Milli Q (1 µl) and 50% DMSO (1 µl) were added to a reaction system prepared as a control, which system contains neither enzyme nor xanthone derivative, and 50% DMSO (1 µl) was added to a reaction system containing no xanthone derivative.)
The Eppendorf tube containing crude topoisomerase II and the Eppendorf tube containing purified topoisomerase II were allowed to stand for 30 minutes at 30°C and 37°C, respectively. Subsequently, SDS/PK/BJ (4 µl) was added to both of the tubes in ice, and both were allowed to stand at 50°C for five minutes, vortexed, and lightly centrifuged. After being allowed to stand again at 50°C for 30 minutes, they were vortexed and lightly centrifuged.
(C) Agarose gel electrophoresis and densitometry
The above-treated mixture was subjected to agarose gel electrophoresis (-EtBr 50 V) by use of a 1 × TBE buffer for electrophoresis (89 mM Tris Base/89 mM boric acid/2 mM EDTA2Na). After electrophoresis, gel staining was performed by use of 1 × TBE ([…]). After being decolorized, the gel was irradiated with UV rays, and bands on the gel were observed. The concentration of the agarose gel was 0.8%.
The amount of reacted enzyme was quantified by transforming the depth of color of the bands on the gel into numerical values by use of a computer (Gel Plotting Macros installed in NIH Image). Data of bands of mini-circle DNA were processed by a computer for conversion into numerical values and calculation, to thereby obtain residual activity (%).

[1] = test sample concentration 100 µg/ml
[2] = test sample concentration 500 µg/ml
[3] = test sample concentration 0.5 µg/ml
[4] = test sample concentration 1 µg/ml
[5] = test sample concentration 50 µg/ml
[6] = test sample concentration 10 µg/ml

| Compound | Residual activity (%) [1] | Residual activity (%) [2] | Residual activity (%) [3] | Residual activity (%) [6] | further results |
| --- | --- | --- | --- | --- | --- |
| Oc1ccc(C=CC=Cc2ccc(O)cc2)cc1 [4,4-(1,3-Butadiene-1,4-diyl)bis-phenol, 4,4-(1,3-butadiene-1,4-diyl)bis-phenol] | 28% | 0% |  |  |  |
| Oc1ccc([C@H]2c3c(O)cc4c5c3[C@@H]([C@@H](c3ccc(O)cc3)c3c(O)cc(O)cc3[C@@H]5[C@@H](c3ccc(O)cc3)O4)[C@@H]2c2cc(O)cc(O)c2)cc1 [Davidiol A, davidiol A] | 3% | 2% |  |  |  |
| Oc1ccc([C@H]2Oc3cc(O)cc4c3[C@@H]2c2cc(O)cc3c2[C@@H](c2cc(O)cc5c2[C@@H]4[C@H](c2ccc(O)cc2)O5)[C@H](c2ccc(O)cc2)O3)cc1 [α-Viniferin, α-viniferin] |  |  | 41% |  | Residual activity (%) [4]: 38%; Residual activity (%) [5]: 0% |
| hopeaphenol | 4% | 1% |  |  |  |
| kobophenol A |  |  | 68% | 59% | Residual activity (%) [5]: 18% |
| leachianol A | 1% | 2% |  |  |  |
| leachianol B | 1% | 1% |  |  |  |
| miyabenol A |  |  | 32% | 0% | Residual activity (%) [4]: 13% |
| miyabenol C |  |  | 57% | 0% | Residual activity (%) (test sample concentration 2 µg/ml): 42% |
